According to ChEMBL document CHEMBL4392832, “Surveying heterocycles as amide bioisosteres within a series of mGlu7 NAMs: Discovery of VU6019278” (Bioorg Med Chem Lett, 2019):
pIC50: −log10 of the molar value.

Tested on: not listed separately
Experiment: Free drug level in Sprague-Dawley rat brain at 0.2 mg/kg, iv via cassette dosing measured after 0.25 hrs by LC-MS/MS analysis
Assay type: ADME, organism-based
Details: in vivo; call rule not given here

| SMILES | Drug uptake(free) [nM] |
| --- | --- |
| COc1ccc(-c2nnc(-c3cc(OC(F)(F)F)ccc3-n3ccnc3)o2)cc1OC | 6 |

Tested on: not listed separately
Experiment: Unbound brain to plasma concentration ratio in rat
Assay type: ADME, cell-free
Details: read-out: K(p,uu,brain)

| SMILES | Kp uu |
| --- | --- |
| COc1cc(-c2nnc(-c3cc(OC(F)(F)F)ccc3-n3cncn3)o2)ccc1OCC1CC1 | 0.43 |
| COc1ccc(-c2nnc(-c3cc(OC(F)(F)F)ccc3-n3ccnc3)o2)cc1OC | 0.65 |

Target: Metabotropic glutamate receptor 5 (Homo sapiens, UniProt P41594)
Sequence (P41594 whole entry): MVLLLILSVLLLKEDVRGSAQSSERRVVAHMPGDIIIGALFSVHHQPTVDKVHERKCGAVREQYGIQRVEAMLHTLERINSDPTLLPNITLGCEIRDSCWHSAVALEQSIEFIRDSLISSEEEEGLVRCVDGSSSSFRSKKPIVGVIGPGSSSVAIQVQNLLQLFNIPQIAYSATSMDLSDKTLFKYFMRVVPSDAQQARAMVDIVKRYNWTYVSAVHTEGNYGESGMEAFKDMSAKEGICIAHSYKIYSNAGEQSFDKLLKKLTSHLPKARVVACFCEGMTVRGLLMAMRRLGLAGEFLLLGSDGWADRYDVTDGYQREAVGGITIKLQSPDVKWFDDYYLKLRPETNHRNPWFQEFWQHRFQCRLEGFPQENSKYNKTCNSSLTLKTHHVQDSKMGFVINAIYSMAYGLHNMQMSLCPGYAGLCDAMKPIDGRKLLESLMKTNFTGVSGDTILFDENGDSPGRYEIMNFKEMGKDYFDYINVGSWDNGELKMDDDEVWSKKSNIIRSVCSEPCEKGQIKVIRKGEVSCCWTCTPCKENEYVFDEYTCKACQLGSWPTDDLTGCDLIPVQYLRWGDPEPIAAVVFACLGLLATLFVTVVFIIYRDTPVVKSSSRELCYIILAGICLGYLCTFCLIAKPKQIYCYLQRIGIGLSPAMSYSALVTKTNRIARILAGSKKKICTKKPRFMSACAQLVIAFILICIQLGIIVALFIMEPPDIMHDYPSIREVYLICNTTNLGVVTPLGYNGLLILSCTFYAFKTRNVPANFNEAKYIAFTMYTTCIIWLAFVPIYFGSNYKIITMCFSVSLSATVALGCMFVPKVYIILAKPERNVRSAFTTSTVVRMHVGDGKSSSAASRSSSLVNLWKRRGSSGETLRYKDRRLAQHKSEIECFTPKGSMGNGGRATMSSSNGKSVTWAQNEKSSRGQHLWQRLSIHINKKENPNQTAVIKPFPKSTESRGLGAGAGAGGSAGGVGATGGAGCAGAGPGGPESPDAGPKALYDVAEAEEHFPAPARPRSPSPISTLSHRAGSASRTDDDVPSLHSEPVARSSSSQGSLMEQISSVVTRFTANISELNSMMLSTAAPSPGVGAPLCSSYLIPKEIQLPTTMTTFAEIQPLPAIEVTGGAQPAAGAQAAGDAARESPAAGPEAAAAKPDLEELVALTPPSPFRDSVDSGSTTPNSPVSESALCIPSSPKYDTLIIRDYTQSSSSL
Experiment: Negative allosteric modulation of mGlu5 receptor (unknown origin)
Details: not given

| SMILES | pIC50 |
| --- | --- |
| COc1ccc(-c2nnc(-c3cc(OC(F)(F)F)ccc3-n3ccnc3)o2)cc1OC | < 5.00 |

Target: Metabotropic glutamate receptor 3 (Homo sapiens, UniProt Q14832)
Sequence (Q14832 whole entry): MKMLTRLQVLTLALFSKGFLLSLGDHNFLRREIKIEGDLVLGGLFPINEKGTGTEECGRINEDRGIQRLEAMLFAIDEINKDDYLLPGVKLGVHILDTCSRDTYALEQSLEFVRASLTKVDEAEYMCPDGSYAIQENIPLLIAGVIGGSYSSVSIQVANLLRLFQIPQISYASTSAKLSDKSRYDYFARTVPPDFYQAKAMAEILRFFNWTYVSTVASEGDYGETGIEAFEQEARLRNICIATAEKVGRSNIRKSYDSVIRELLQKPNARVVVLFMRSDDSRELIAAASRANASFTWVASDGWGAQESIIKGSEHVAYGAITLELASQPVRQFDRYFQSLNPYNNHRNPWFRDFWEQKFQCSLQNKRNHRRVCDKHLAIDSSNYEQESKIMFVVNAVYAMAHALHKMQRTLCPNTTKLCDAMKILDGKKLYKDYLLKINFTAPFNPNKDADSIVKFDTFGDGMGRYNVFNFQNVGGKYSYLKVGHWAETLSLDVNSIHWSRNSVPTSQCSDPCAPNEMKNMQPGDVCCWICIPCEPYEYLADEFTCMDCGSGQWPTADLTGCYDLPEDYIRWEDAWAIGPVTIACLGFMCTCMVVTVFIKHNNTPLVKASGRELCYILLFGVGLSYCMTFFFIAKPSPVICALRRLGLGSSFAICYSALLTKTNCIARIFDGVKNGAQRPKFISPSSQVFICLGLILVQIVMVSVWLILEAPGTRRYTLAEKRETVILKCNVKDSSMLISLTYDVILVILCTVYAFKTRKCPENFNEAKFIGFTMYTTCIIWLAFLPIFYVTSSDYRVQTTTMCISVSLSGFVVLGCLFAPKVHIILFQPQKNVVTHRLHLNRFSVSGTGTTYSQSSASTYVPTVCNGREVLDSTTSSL
Experiment: Negative allosteric modulation of mGlu3 receptor (unknown origin)
Details: not given

| SMILES | pIC50 |
| --- | --- |
| COc1ccc(-c2nnc(-c3cc(OC(F)(F)F)ccc3-n3ccnc3)o2)cc1OC | < 5.00 |

Target: Metabotropic glutamate receptor 7 (Rattus norvegicus) (UniProt P35400)
Sequence (P35400 whole entry): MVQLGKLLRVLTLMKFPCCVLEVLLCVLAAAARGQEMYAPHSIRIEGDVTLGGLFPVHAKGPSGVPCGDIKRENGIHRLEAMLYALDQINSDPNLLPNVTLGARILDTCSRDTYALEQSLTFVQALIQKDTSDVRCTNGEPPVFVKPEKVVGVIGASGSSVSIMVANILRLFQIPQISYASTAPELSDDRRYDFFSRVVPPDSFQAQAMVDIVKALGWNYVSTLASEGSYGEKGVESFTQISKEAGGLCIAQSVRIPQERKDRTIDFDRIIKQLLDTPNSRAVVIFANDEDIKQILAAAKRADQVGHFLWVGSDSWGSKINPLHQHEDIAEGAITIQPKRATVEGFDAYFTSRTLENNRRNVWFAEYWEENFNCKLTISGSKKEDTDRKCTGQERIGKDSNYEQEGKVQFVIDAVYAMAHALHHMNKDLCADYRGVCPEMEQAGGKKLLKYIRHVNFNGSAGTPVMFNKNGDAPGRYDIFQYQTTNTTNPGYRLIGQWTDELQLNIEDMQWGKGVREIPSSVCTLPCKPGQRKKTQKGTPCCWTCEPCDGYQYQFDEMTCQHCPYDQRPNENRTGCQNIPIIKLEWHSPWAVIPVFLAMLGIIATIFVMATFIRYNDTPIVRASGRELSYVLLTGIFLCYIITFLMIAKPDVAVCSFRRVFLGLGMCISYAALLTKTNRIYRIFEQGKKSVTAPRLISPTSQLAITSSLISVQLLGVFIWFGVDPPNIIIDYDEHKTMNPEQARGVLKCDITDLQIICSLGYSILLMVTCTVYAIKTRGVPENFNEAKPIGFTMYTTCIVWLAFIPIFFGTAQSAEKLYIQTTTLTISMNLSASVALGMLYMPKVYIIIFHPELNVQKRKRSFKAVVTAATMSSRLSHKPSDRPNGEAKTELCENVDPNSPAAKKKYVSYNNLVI
Experiment: (§1) Negative allosteric modulation of rat mGlu7 receptor expressed in HEK cells co-expressing Galpha15 assessed as minimum L-AP4 response by measuring reduction in calcium mobilization incubated for 142 secs prior to glutamate addition for 120 secs followed by L-AP4 addition and measured after 40 secs by Fluo-4 AM dye based fluorescence assay relative to L-AP4 alone
Assay type: functional, cell-based
Parameters: scale not given: the % may be the effect or the level left
Details: not given

| SMILES | Activity [%] |
| --- | --- |
| COc1cc(F)c(-c2nnc(-c3cc(OC(F)(F)F)ccc3-n3cncn3)o2)cc1OC | 72.8 |
| COc1cc(-c2nnc(-c3cc(OC(F)(F)F)ccc3-n3cncn3)o2)ccc1OC1CCC1 | 10.4 |
| COc1ccc(-c2nnc(-c3cc(OC(F)(F)F)ccc3-c3ccncc3)o2)cc1OC | 27.9 |
| COc1ccc(-c2nnc(-c3cc(OC(F)(F)F)ccc3-c3ccnn3C)o2)cc1OC | 20.6 |
| COc1ccc(-c2nnc(-c3cc(OC(F)(F)F)ccc3-n3ccnc3)o2)cc1OC | 6.3 |
| COc1ccc(-c2nnc(-c3cc(OC(F)(F)F)ccc3N3CCCCC3)o2)cc1OC | 65.4 |
| COc1ccc(-c2c[nH]c(-c3cc(OC(F)(F)F)ccc3-n3cncn3)n2)cc1OC | 34.2 |
| COc1ccc(-c2nnc(-c3cc(OC(F)(F)F)ccc3-c3cscn3)o2)cc1OC | 49.2 |
| COc1ccc(-c2nsc(-c3cc(OC(F)(F)F)ccc3-n3cncn3)n2)cc1OC | 41.5 |
| COc1ccc(-c2noc(-c3cc(OC(F)(F)F)ccc3-n3cncn3)n2)cc1OC | 14.5 |
| COc1ccc(-c2nnc(-c3cc(OC(F)(F)F)ccc3-c3cn[nH]c3)o2)cc1OC | 10.3 |
| COc1ccc(-c2nnc(-c3cc(OC(F)(F)F)ccc3-n3cncn3)o2)cc1OC | 7.1 |
| COc1ccc(-c2coc(-c3cc(OC(F)(F)F)ccc3-n3cncn3)n2)cc1OC | 21.1 |
| COc1cc(-c2nnc(-c3cc(OC(F)(F)F)ccc3-n3cncn3)o2)ccn1 | 68.9 |

The next lines start with the values.

| Activity [%] | SMILES |
| --- | --- |
| 36.5 | COc1ccc(-c2cnc(-c3cc(OC(F)(F)F)ccc3-n3cncn3)o2)cc1OC |
| 23.1 | COc1ccc(-c2nnc(-c3cc(OC(F)(F)F)ccc3N3CCOCC3)o2)cc1OC |
| 27.6 | COc1ccc(-c2nnc(-c3cc(OC(F)(F)F)ccc3-c3ccnnc3)o2)cc1OC |
| 32.4 | COc1ccc(-c2cn(-c3cc(OC(F)(F)F)ccc3-n3cncn3)nn2)cc1OC |
| 13.2 | COc1cc(-c2nnc(-c3cc(OC(F)(F)F)ccc3-n3cncn3)o2)ccc1OCC1CC1 |
| 13.5 | COc1cc(-c2nnc(-c3cc(OC(F)(F)F)ccc3-n3cncn3)o2)cnc1OC |
| 8.4 | COc1ccc(-c2nc(-c3cc(OC(F)(F)F)ccc3-n3cncn3)no2)cc1OC |

Target: Metabotropic glutamate receptor 2 (Homo sapiens, UniProt Q14416)
Experiment: Negative allosteric modulation of mGlu2 receptor (unknown origin)
Details: not given

| SMILES | pIC50 |
| --- | --- |
| COc1ccc(-c2nnc(-c3cc(OC(F)(F)F)ccc3-n3ccnc3)o2)cc1OC | < 5.00 |

Target: Metabotropic glutamate receptor 1 (Homo sapiens, UniProt Q13255)
Sequence (Q13255 whole entry): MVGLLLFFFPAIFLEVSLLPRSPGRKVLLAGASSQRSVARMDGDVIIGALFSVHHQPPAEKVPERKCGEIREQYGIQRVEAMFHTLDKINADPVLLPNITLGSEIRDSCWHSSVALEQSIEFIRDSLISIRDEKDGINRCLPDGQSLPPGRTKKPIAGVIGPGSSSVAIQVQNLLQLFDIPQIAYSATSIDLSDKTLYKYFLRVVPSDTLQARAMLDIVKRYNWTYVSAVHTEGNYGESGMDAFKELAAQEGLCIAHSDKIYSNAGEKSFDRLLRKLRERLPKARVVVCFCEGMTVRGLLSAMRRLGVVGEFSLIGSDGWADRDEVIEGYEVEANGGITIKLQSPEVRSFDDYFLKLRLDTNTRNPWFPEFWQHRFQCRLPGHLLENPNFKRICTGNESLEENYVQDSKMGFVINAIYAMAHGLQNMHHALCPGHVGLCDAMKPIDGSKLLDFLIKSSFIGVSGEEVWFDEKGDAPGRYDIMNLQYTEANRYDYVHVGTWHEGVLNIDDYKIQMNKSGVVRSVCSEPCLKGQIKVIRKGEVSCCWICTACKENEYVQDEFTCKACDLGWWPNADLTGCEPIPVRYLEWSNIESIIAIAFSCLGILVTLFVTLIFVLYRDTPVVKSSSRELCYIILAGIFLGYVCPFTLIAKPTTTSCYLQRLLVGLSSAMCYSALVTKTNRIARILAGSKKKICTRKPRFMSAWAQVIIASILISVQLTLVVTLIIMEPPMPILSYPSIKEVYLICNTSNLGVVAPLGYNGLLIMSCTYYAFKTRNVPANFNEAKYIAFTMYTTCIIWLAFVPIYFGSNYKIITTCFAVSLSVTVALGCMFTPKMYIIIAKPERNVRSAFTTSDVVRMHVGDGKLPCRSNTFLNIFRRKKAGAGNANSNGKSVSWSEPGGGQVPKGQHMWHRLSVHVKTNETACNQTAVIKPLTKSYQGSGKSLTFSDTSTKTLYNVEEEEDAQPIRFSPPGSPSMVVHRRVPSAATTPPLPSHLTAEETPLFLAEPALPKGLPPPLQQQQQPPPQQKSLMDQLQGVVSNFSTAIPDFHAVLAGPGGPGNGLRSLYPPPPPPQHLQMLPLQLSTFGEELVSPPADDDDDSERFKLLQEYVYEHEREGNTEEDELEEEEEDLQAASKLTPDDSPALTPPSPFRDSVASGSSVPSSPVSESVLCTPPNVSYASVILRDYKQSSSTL
Experiment: Negative allosteric modulation of mGlu1 receptor (unknown origin)
Details: not given

| SMILES | pIC50 |
| --- | --- |
| COc1ccc(-c2nnc(-c3cc(OC(F)(F)F)ccc3-n3ccnc3)o2)cc1OC | < 5.00 |

Target: Metabotropic glutamate receptor 6 (Homo sapiens, UniProt O15303)
Sequence (O15303 whole entry): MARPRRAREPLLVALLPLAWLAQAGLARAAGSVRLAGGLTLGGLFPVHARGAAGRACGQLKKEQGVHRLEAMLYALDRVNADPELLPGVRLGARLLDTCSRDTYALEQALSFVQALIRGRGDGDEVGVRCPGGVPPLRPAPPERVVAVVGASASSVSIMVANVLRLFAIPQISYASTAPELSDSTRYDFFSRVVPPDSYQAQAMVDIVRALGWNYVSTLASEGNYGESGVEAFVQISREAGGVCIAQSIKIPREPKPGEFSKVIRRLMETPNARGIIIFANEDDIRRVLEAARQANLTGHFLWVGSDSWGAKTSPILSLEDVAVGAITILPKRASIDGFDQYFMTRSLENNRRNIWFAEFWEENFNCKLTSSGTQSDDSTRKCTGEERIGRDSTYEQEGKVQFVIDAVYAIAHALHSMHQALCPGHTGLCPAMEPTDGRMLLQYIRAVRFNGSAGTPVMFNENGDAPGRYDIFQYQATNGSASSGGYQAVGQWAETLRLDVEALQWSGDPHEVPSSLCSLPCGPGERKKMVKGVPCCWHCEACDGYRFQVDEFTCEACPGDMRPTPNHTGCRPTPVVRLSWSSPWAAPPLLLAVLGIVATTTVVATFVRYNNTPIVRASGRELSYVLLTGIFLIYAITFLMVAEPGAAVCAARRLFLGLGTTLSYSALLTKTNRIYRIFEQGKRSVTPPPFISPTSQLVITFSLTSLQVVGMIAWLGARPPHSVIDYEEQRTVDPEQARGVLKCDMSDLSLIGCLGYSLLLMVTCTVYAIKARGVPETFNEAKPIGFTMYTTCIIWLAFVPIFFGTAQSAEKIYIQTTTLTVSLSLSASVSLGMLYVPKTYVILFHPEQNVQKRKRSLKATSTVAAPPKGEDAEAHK
Experiment: Negative allosteric modulation of mGlu6 receptor (unknown origin)
Details: not given

| SMILES | pIC50 |
| --- | --- |
| COc1ccc(-c2nnc(-c3cc(OC(F)(F)F)ccc3-n3ccnc3)o2)cc1OC | < 5.00 |

Tested on: not listed separately
Experiment: Protein binding in rat brain assessed as unbound fraction at 5 uM measured after 6 hrs by LC-MS/MS analysis
Assay type: ADME, tissue-based
Details: not given

| SMILES | fraction unbound at 6 h, 5 µM |
| --- | --- |
| COc1ccc(-c2nnc(-c3cc(OC(F)(F)F)ccc3-n3ccnc3)o2)cc1OC | 0.013 |

Target: Metabotropic glutamate receptor 4 (Homo sapiens, UniProt Q14833)
Experiment: Negative allosteric modulation of mGlu4 receptor (unknown origin)
Details: not given

| SMILES | pIC50 |
| --- | --- |
| COc1ccc(-c2nnc(-c3cc(OC(F)(F)F)ccc3-n3ccnc3)o2)cc1OC | < 5.00 |

Tested on: not listed separately
Experiment: Brain to plasma permeability coefficient, Kp of compound in rat
Assay type: ADME, cell-free
Details: not given

| SMILES | Kp |
| --- | --- |
| COc1cc(-c2nnc(-c3cc(OC(F)(F)F)ccc3-n3cncn3)o2)ccc1OCC1CC1 | 2 |
| COc1ccc(-c2nnc(-c3cc(OC(F)(F)F)ccc3-n3ccnc3)o2)cc1OC | 4.9 |

Target: Metabotropic glutamate receptor 8 (Homo sapiens, UniProt O00222)
Experiment: Negative allosteric modulation of mGlu8 receptor (unknown origin)
Details: not given

| SMILES | pIC50 |
| --- | --- |
| COc1ccc(-c2nnc(-c3cc(OC(F)(F)F)ccc3-n3ccnc3)o2)cc1OC | < 5.00 |

Tested on: not listed separately
Experiment: Total drug level in Sprague-Dawley rat brain at 0.2 mg/kg, iv via cassette dosing measured after 0.25 hrs by LC-MS/MS analysis
Assay type: ADME, organism-based
Details: read-out: Drug uptake

| SMILES | concentration at 0.25 h [nM] |
| --- | --- |
| COc1ccc(-c2nnc(-c3cc(OC(F)(F)F)ccc3-n3ccnc3)o2)cc1OC | 456 |

Tested on: not listed separately
Experiment: Protein binding in rat plasma assessed as unbound fraction at 5 uM measured after 4 hrs by LC-MS/MS analysis
Assay type: ADME, cell-free
Details: not given

| SMILES | fraction unbound at 4 h, 5 µM |
| --- | --- |
| COc1cc(-c2nnc(-c3cc(OC(F)(F)F)ccc3-n3cncn3)o2)ccc1OCC1CC1 | 0.038 |

Same assay, conditions: 4 h, 5 µM

| SMILES | Fu |
| --- | --- |
| COc1ccc(-c2nnc(-c3cc(OC(F)(F)F)ccc3-n3ccnc3)o2)cc1OC | 0.1 |

Target: Metabotropic glutamate receptor 7 (Rattus norvegicus, UniProt P35400)
Sequence (P35400 whole entry): as the sequence (P35400 whole entry) above
Experiment: as §1, with “as” for “as minimum L-AP4 response by measuring”, “assay” for “assay relative to L-AP4 alone”
Assay type: functional, cell-based
Details: not given

| SMILES | IC50 |
| --- | --- |
| COc1ccc(-c2nn3cc(-c4cc(OC(F)(F)F)ccc4-n4cncn4)nc3s2)cc1OC | Not Active |
| COc1ccc(-c2ccn3c(-c4cc(OC(F)(F)F)ccc4-n4cncn4)nnc3c2)cc1OC | Not Active |
| COc1ccc(-c2nnnn2-c2cc(OC(F)(F)F)ccc2-n2cncn2)cc1OC | Not Active |

Continued, values first:

| IC50 | SMILES |
| --- | --- |
| Not Active | COc1ccc(-c2ccc3nnc(-c4cc(OC(F)(F)F)ccc4-n4cncn4)n3n2)cc1OC |
| Not Active | COc1ccc(-c2nnc3sc(-c4cc(OC(F)(F)F)ccc4-n4cncn4)nn23)cc1OC |

Same assay, conditions: read-out: IC50

| SMILES | pIC50 |
| --- | --- |
| COc1ccc(-c2nnc(-c3cc(OC(F)(F)F)ccc3-c3cnn(C)c3)o2)cc1OC | < 4.52 |
| FC(F)(F)Oc1ccc(-n2cncn2)c(-c2nnc(-c3ccc4c(c3)OCCO4)o2)c1 | < 4.52 |
| COc1cc(F)c(-c2nnc(-c3cc(OC(F)(F)F)ccc3-n3cncn3)o2)cc1OC | ≤ 5.00 |
| COc1cc(-c2nnc(-c3cc(OC(F)(F)F)ccc3-n3cncn3)o2)ccc1OC1CCC1 | 5.81 |
| COc1ccc(-c2nnc(-c3cc(OC(F)(F)F)ccc3-c3ccncc3)o2)cc1OC | ≤ 5.00 |
| COc1ccc(-c2nnc(-c3cc(OC(F)(F)F)ccc3-n3ccnc3)o2)cc1OC | 6.24 |
| COc1ccc(-c2nnc(-c3cc(OC(F)(F)F)ccc3N3CCCCC3)o2)cc1OC | 5.23 |
| COc1cc(-c2nnc(-c3cc(OC(F)(F)F)ccc3-n3cncn3)o2)ccc1F | < 4.52 |
| COc1ccc(-c2nnc(-c3cc(OC(F)(F)F)ccc3-n3cncn3)o2)c(F)c1F | < 4.52 |
| COc1ccc(-c2c[nH]c(-c3cc(OC(F)(F)F)ccc3-n3cncn3)n2)cc1OC | ≤ 5.00 |
| COc1ccc(-c2nnc(-c3cc(OC(F)(F)F)ccc3-c3cscn3)o2)cc1OC | 5.45 |
| COc1ccc(-c2nsc(-c3cc(OC(F)(F)F)ccc3-n3cncn3)n2)cc1OC | ≤ 5.00 |
| COc1ccc(-c2noc(-c3cc(OC(F)(F)F)ccc3-n3cncn3)n2)cc1OC | 5.88 |
| COc1ccc(-c2nnc(-c3cc(OC(F)(F)F)ccc3-c3cn[nH]c3)o2)cc1OC | 5.65 |
| COc1ccc(-c2nnc(-c3cc(OC(F)(F)F)ccc3-n3cncn3)o2)cc1OC | 5.80 |
| COc1ccc(-c2coc(-c3cc(OC(F)(F)F)ccc3-n3cncn3)n2)cc1OC | 5.12 |
| COc1cc(-c2nnc(-c3cc(OC(F)(F)F)ccc3-n3cncn3)o2)ccn1 | ≤ 5.00 |

Further lines, results first:

| pIC50 | SMILES |
| --- | --- |
| < 4.52 | COc1ccc(-c2nnc(-c3cc(OC(F)(F)F)ccc3-n3cncn3)o2)cc1F |
| 5.68 | COc1ccc(-c2cnc(-c3cc(OC(F)(F)F)ccc3-n3cncn3)o2)cc1OC |
| 5.93 | COc1ccc(-c2nnc(-c3cc(OC(F)(F)F)ccc3N3CCOCC3)o2)cc1OC |
| ≤ 5.00 | COc1ccc(-c2nnc(-c3cc(OC(F)(F)F)ccc3-c3ccnnc3)o2)cc1OC |
| < 4.52 | COc1ccc(-c2nnc(-c3cc(OC(F)(F)F)ccc3N3CCCC3)o2)cc1OC |
| ≤ 5.00 | COc1ccc(-c2cn(-c3cc(OC(F)(F)F)ccc3-n3cncn3)nn2)cc1OC |
| < 4.52 | COc1ccc(-c2nnc(-c3cc(OC(F)(F)F)ccc3N3CCN(C)CC3)o2)cc1OC |
| < 4.52 | FC(F)(F)Oc1ccc(-n2cncn2)c(-c2nnc(-c3ccc4c(c3)OC(F)(F)O4)o2)c1 |
| 5.88 | COc1cc(-c2nnc(-c3cc(OC(F)(F)F)ccc3-n3cncn3)o2)ccc1OCC1CC1 |
| 5.36 | COc1cc(-c2nnc(-c3cc(OC(F)(F)F)ccc3-n3cncn3)o2)cnc1OC |
| < 4.52 | COc1ccc(-c2nnc(-c3cc(OC(F)(F)F)ccc3-n3cncn3)o2)cn1 |
| < 4.52 | COc1ccc(-c2nnc(-c3cc(OC(F)(F)F)ccc3-c3cccnc3)o2)cc1OC |
| 5.62 | COc1ccc(-c2nc(-c3cc(OC(F)(F)F)ccc3-n3cncn3)no2)cc1OC |
| < 4.52 | FC(F)(F)Oc1ccc(-n2cncn2)c(-c2nnc(-c3ccc4c(c3)OCO4)o2)c1 |
| < 4.52 | COc1cc(-c2nnc(-c3cc(OC(F)(F)F)ccc3-n3cncn3)o2)cc(F)c1OC |
